Measured values reported in patent publication US5712273A, “Amino acid derivatives, processes for the manufacture thereof and pharmaceutical compositions (II) containing these compounds” (Boehringer Ingelheim GmbH, priority 1994, dated 1998).
Where two headings read alike, the source gives them in different places.

How the values were obtained:
[1] = target: T1, NK1-receptor (substance P-receptor) (Homo sapiens, UniProt P25103); assay: NK1-receptor (substance P-receptor) affinity: displacement of 125I-labelled substance P on IM-9 cells; type: binding
T1 construct: cloned NK1 -receptors on human lymphoblastoma cells (IM-9); endogenous in cells; host or cells: IM-9 human lymphoblastoma cells
Protocol: (§1) The receptor affinity at the NK1 -receptor (substance P-receptor) was determined with cloned NK1 -receptors on human lymphoblastoma cells (IM-9), whereby the displacement of ^125 I-labelled substance P is measured. The NK2 -binding test is carried out on transfixed A20 cells which represent the human NK2 receptor. The displacement of ^125 I-BN-neusolinine A is determined.

human NK2 receptor = target: T2, human NK2 receptor (Homo sapiens, UniProt P21452); assay: NK2-binding test: displacement of 125I-labelled ligand on A20 cells which represent the human NK2 receptor; settings: transfixed A20 cells (human NK2 receptor); displacement of 125I-BN-neusolinine A
T2 construct: expressed in transfected cells; host or cells: A20 cells
T2 sequence (P21452 1-398): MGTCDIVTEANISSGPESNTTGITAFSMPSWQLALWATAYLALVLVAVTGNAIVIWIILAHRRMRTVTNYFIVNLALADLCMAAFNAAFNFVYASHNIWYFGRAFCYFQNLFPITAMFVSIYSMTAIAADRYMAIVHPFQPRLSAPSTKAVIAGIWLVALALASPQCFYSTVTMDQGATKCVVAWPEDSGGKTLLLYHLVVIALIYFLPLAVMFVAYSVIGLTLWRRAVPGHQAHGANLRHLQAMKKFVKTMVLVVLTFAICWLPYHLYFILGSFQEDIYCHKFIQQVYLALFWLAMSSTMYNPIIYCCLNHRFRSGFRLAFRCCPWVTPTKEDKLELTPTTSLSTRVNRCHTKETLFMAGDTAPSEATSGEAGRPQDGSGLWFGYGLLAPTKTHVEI
Protocol: as §1

[2] = cloned NK1-receptors on human lymphoblastoma cells (IM-9), displacement of 125I-labelled substance P, read-out: NK1 IC50

T1 sequence (P25103 whole entry): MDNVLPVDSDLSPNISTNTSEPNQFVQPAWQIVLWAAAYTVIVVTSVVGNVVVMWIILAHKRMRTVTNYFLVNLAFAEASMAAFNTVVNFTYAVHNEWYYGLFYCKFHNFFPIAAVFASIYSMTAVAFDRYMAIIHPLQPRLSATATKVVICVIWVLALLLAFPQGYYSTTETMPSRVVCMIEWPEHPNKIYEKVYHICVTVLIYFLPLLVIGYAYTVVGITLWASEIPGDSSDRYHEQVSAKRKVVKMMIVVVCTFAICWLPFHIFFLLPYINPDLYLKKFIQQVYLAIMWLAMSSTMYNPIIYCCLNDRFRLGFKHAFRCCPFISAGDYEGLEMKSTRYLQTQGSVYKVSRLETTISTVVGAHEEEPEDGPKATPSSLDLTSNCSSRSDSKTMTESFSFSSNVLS

SMILES	IC50 [1, 2] [nM]	IC50 (human NK2 receptor) [nM]	IC50 [1] [nM]
COc1ccccc1N1CCN(C(=O)[C@H](Cc2ccc3ccccc3c2)NC(=O)[C@@H]2C[C@@H](O)CN2C(=O)C2CC3C=CC2(OC)CC3)CC1 (stereo partly drawn) [Compound 19]	26	600	–
COc1ccccc1N1CCN(C(=O)[C@H](Cc2ccc3ccccc3c2)NC(=O)[C@@H]2C[C@@H](O)CN2C(=O)C2C(O)C3CCN2CC3)CC1 (stereo partly drawn) [Compound 22]	–	1300	25
CC12CCC(C(C(=O)N3C[C@H](O)C[C@H]3C(=O)N[C@@H](Cc3ccc4ccccc4c3)C(=O)N3CCN(C4CCCCC4)CC3)C1=O)C2(C)C (stereo partly drawn) [Compound 9]	17	–	–
COc1ccccc1N1CCN(C(=O)[C@H](Cc2ccc3ccccc3c2)NC(=O)[C@@H]2C[C@@H](O)CN2C(=O)C2C3CC4C(C3=O)C42)CC1 (stereo partly drawn) [Compound 17]	7	93	–
COc1ccccc1N1CCN(C(=O)[C@H](Cc2ccc3ccccc3c2)NC(=O)[C@@H]2C[C@@H](O)CN2C(=O)C2CCCCC2O)CC1 (stereo partly drawn) [Compound 21]	20	130	–
COc1ccccc1N1CCN(C(=O)[C@H](Cc2ccc3ccccc3c2)NC(=O)[C@@H]2C[C@@H](O)CN2C(=O)C2CC3CCC2(OC)CC3)CC1 (stereo partly drawn) [Compound 23]	14	140	–
COc1ccccc1N1CCN(C(=O)[C@H](Cc2ccc3ccccc3c2)NC(=O)[C@@H]2C[C@@H](O)CN2S(=O)(=O)CC23CCC(CC2=O)C3(C)C)CC1 (stereo partly drawn) [Compound 20]	26	350	–
CC12CCC(C(C(=O)N3C[C@H](O)C[C@H]3C(=O)N[C@@H](Cc3ccc4ccccc4c3)C(=O)N3CCN(c4ccccc4O)CC3)C1=O)C2(C)C (stereo partly drawn) [Compound 12]	5.6	–	–
COc1ccccc1N1CCN(C(=O)[C@H](Cc2ccc3ccccc3c2)NC(=O)[C@@H]2C[C@@H](O)CN2C(=O)C2CCCCC2=O)CC1 (stereo partly drawn) [Compound 25]	18	880	–
COc1ccc(N2CCN(C(=O)[C@H](Cc3ccc4ccccc4c3)NC(=O)[C@@H]3C[C@@H](O)CN3C(=O)C3C(=O)C4(C)CCC3C4(C)C)CC2)c(C)c1 (stereo partly drawn) [Compound 5]	11	117	–
COc1ccccc1N1CCN(C(=O)[C@H](Cc2ccc3ccccc3c2)NC(=O)[C@@H]2C[C@@H](O)CN2C(=O)C2C3CCC(C)(C2O)C3(C)C)CC1 (stereo partly drawn) [Compound 18]	8	16	–
CC12CCC(C(C(=O)N3C[C@H](O)C[C@H]3C(=O)N[C@@H](Cc3c[nH]c4ccccc34)C(=O)N3CCN(c4ccccc4C#N)CC3)C1=O)C2(C)C (stereo partly drawn) [Compound 26]	28	–	–
CC12CCC(C(C(=O)N3C[C@H](O)C[C@H]3C(=O)N[C@@H](Cc3ccc4ccccc4c3)C(=O)N3CCN(c4ccccn4)CC3)C1=O)C2(C)C (stereo partly drawn) [Compound 6]	45	–	–
COc1ccccc1CN1C(=O)C(NC(=O)[C@@H]2C[C@@H](O)CN2C(=O)C2C(=O)C3(C)CCC2C3(C)C)Cc2cc(OC)c(OC)cc21 (stereo partly drawn) [Compound 28]	23	1500	–
CC12CCC(C(C(=O)N3C[C@H](O)C[C@H]3C(=O)N[C@@H](Cc3ccc4ccccc4c3)C(=O)N3CCN(c4ccc5ccccc5c4)CC3)C1=O)C2(C)C (stereo partly drawn) [Compound 13]	105	780	–
CC12CCC(C(C(=O)N3C[C@H](O)C[C@H]3C(=O)N[C@@H](Cc3ccc4ccccc4c3)C(=O)N3CCN(C(c4ccc(F)cc4)c4ccc(F)cc4)CC3)C1=O)C2(C)C (stereo partly drawn) [Compound 10]	200	–	–

Second part, led by results:

IC50 [1, 2] [nM]	IC50 (human NK2 receptor) [nM]	SMILES	IC50 [1] [nM]
4.9	59	Cc1ccccc1CN(C)C(=O)[C@H](Cc1cn(C)c2ccccc12)NC(=O)[C@@H]1C[C@@H](O)CN1C(=O)C1C(=O)C2(C)CCC1C2(C)C (stereo partly drawn) [Compound 45]	–
3	65	Cc1ccccc1N1CCN(C(=O)[C@H](Cc2ccc3ccccc3c2)NC(=O)[C@@H]2C[C@@H](O)CN2C(=O)C2C(=O)C3(C)CCC2C3(C)C)CC1 (stereo partly drawn) [Compound 3]	–
3.2	38	CCOc1ccccc1N1CCN(C(=O)[C@H](Cc2ccc3ccccc3c2)NC(=O)[C@@H]2C[C@@H](O)CN2C(=O)C2C(=O)C3(C)CCC2C3(C)C)CC1 (stereo partly drawn) [Compound 15]	–
1.2	54	CN(Cc1ccccc1Cl)C(=O)[C@H](Cc1c[nH]c2ccccc12)NC(=O)[C@@H]1C[C@@H](O)CN1C(=O)C1C(=O)C2(C)CCC1C2(C)C (stereo partly drawn) [Compound 42]	–
0.7	19	CC12CCC(C(C(=O)N3C[C@H](O)C[C@H]3C(=O)N[C@@H](Cc3ccc4ccccc4c3)C(=O)N3CCN(c4ccccc4C#N)CC3)C1=O)C2(C)C (stereo partly drawn) [Compound 16]	–
0.45	44	CCOC(=O)c1ccccc1N1CCN(C(=O)[C@H](Cc2ccc3ccccc3c2)NC(=O)[C@@H]2C[C@@H](O)CN2C(=O)C2C(=O)C3(C)CCC2C3(C)C)CC1 (stereo partly drawn) [Compound 7]	–
3.1	240	CSc1ccccc1N1CCN(C(=O)[C@H](Cc2ccc3ccccc3c2)NC(=O)[C@@H]2C[C@@H](O)CN2C(=O)C2C(=O)C3(C)CCC2C3(C)C)CC1 (stereo partly drawn) [Compound 14]	–
0.5	450	CN(Cc1ccccc1)C(=O)[C@H](Cc1ccc2ccccc2c1)NC(=O)[C@@H]1C[C@@H](O)CN1C(=O)C1C(=O)C2(C)CCC1C2(C)C (stereo partly drawn) [Compound 27]	–
5.1	39	CCc1ccccc1CN(C)C(=O)[C@H](Cc1c[nH]c2ccccc12)NC(=O)[C@@H]1C[C@@H](O)CN1C(=O)C1C(=O)C2(C)CCC1C2(C)C (stereo partly drawn) [Compound 44]	–
3.3	1240	COc1ccccc1N1CCN(C(=O)[C@H](Cc2ccc3ccccc3c2)NC(=O)[C@@H]2C[C@@H](O)CN2C(=O)C23CCC(C)(C(=O)O2)C3(C)C)CC1 (stereo partly drawn) [Compound 24]	–
5	110	CC(C)c1ccccc1N1CCN(C(=O)[C@H](Cc2ccc3ccccc3c2)NC(=O)[C@@H]2C[C@@H](O)CN2C(=O)C2C(=O)C3(C)CCC2C3(C)C)CC1 (stereo partly drawn) [Compound 4]	–
3.1	21	COc1ccccc1N1CCN(C(=O)[C@H](Cc2ccc3ccccc3c2)NC(=O)[C@@H]2C[C@@H](O)CN2C(=O)C2C(=O)C3(C)CCC2C3(C)C)CC1 (single isomer, unassigned) [Compound 1]	–
1.2	21	CN(Cc1ccccc1Br)C(=O)[C@H](Cc1c[nH]c2ccccc12)NC(=O)[C@@H]1C[C@@H](O)CN1C(=O)C1C(=O)C2(C)CCC1C2(C)C (stereo partly drawn) [Compound 43]	–
3	18	CC12CCC(C(C(=O)N3C[C@H](O)C[C@H]3C(=O)N[C@@H](Cc3ccc4ccccc4c3)C(=O)N3CCN(c4ccccc4Cl)CC3)C1=O)C2(C)C (stereo partly drawn) [Compound 8]	–
3.2	57	Cc1ccccc1CN(C)C(=O)[C@H](Cc1c[nH]c2ccccc12)NC(=O)[C@@H]1CCCN1C(=O)C1C(=O)C2(C)CCC1C2(C)C (stereo partly drawn) [Compound 47]	–
3.6	21	Cc1ccccc1CN(C)C(=O)[C@H](Cc1c[nH]c2ccccc12)NC(=O)[C@@H]1C[C@@H](O)CN1C(=O)C1C(=O)C2(C)CCC1C2(C)C (single isomer, unassigned) [Compound 2]	–
3.2	–	CC12CCC(C(C(=O)N3C[C@H](O)C[C@H]3C(=O)N[C@@H](Cc3ccc4ccccc4c3)C(=O)N3CCN(c4ccccc4[N+](=O)[O-])CC3)C1=O)C2(C)C (stereo partly drawn) [Compound 11]	–
